In patent US20230079439A1, “Compositions and Methods for Enhancing Beta Cell Maturation, Health and Function” (THE REGENTS OF THE UNIVERSITY OF CALIFORNIA, priority 2016, published 2023):
Ends that are not written are not given here.

What was measured:
INS-1E cells [1] = assay: Insulin content (RIA) of INS-1E lysates; type: cell-based, rat; details: 24 h
Procedure: (§1) FIG. 7, comprising FIG. 7A through FIG. 7G, depicts the evaluation of the biological activity of HSA-28P in INS-1E cells. FIG. 7A depicts dose-response analysis of the effect of HSA-28P on the rate of insulin secretion in INS-1E cells. The INS-1E cells were grown and trypsinized as described in Methods. Subsequently, cells were mixed with the indicated concentrations of HSA-28P (red columns), non-relevant peptide nanoparticles (NRPNP, green columns), and naked nanoparticles (NP, blue columns) and were seeded in 12-well plates. After 24 h the cells were taken to a GSIS in the presence of 2.5 mM (weak color bars) or 16.7 mM (strong color bars) glucose. […] INS-1E cells were treated as described in Panel D. Cells were detached by trypsin and counted as described in Methods and then were visualized with a Cells Sense Live Imaging microscope. […]
The lysis buffer contained 50 mmol/L Tris-HCl, pH 7.5, 1 mmol/L EDTA, 1 mmol/L EGTA, 1 mmol/L Na3VO4, 150 mmol/L NaCl, 50 mmol/L NaF, 10 mmol/L sodium-glycerophosphate, 5 mmol/L sodium pyrophosphate, and 1 mmol/L PMSF, supplemented with 0.1% (v/v) IGEPAL, 0.1% (v/v) 2-β-mercaptoethanol, and protease inhibitor cocktail (1:100 dilution). […] Protein content in the supernatant was determined by Bradford analysis, using a BSA standard dissolved in the same buffer. […]

INS-1E cells [2] = assay: MTT cell viability under glucose oxidase-induced oxidative stress; type: cell-based, rat
Procedure: as §1, with “glucose. FIG. 7B depicts time-course analysis of the effect of HSA-28P on the rate of insulin secretion in INS-1E cells. The INS-1E cells were prepared for the experiment as described above with 1.34 μM of both HSA-28P or NRPNP, and 0.76 μg/ml of NP.” for “glucose.”
Briefly, cells were incubated with MTT (2 mg/mL) in growth medium for 30 min at 37° C. […] Absorbance at 570 nm was measured in a SpectraMax M5 spectrophotometer (Sunnyvale, Calif., USA). The obtained results were normalized by total protein content in culture cells, which was measured using the Bradford reagent. […]

HSA-112: HSA-28 dimer formed by bridging two HSA-28 monomers via amide bond formation with active ester PEG2,000 (QQGEFLNYD-NH2; not fully specified (N-terminus); also: dimer of two HSA-28 monomers bridged via amide bonds with active ester PEG2000)
effect on cellular / total insulin content (INS-1E cells [1]): did not affect the cellular insulin content
cell protective effect compared with trolox (INS-1E cells [2]; glucose oxidase-induced oxidative stress): almost identical to that of the well-known antioxidant (trolox)
effect on cell viability under oxidative stress (INS-1E cells [2]; glucose oxidase/glucose system, 24 h): cytoprotective effect
